Measurements published in patent US20240352046A1, “ECTONUCLEOTIDE PYROPHOSPHATASE-PHOSPHODIESTERASE-1 (ENPP1) INHIBITORS AND USES THEREOF” (1cBio, Inc., priority 2020, published 2024).
Read-outs that look alike come from different tables or passages of the source.

Legend:
[1] = molecular target: ENPP-1 (Ectonucleotide Pyrophosphatase/Phosphodiesterase 1) (Homo sapiens (Human), UniProt P22413); assay: ENPP1 inhibition assay (AMP Glo, cGAMP substrate); assay type: biochemical; conditions: cGAMP 20 μM substrate, ENPP1 1 nM
Chain of ENPP-1 (Ectonucleotide Pyrophosphatase/Phosphodiesterase 1) (P22413 whole entry): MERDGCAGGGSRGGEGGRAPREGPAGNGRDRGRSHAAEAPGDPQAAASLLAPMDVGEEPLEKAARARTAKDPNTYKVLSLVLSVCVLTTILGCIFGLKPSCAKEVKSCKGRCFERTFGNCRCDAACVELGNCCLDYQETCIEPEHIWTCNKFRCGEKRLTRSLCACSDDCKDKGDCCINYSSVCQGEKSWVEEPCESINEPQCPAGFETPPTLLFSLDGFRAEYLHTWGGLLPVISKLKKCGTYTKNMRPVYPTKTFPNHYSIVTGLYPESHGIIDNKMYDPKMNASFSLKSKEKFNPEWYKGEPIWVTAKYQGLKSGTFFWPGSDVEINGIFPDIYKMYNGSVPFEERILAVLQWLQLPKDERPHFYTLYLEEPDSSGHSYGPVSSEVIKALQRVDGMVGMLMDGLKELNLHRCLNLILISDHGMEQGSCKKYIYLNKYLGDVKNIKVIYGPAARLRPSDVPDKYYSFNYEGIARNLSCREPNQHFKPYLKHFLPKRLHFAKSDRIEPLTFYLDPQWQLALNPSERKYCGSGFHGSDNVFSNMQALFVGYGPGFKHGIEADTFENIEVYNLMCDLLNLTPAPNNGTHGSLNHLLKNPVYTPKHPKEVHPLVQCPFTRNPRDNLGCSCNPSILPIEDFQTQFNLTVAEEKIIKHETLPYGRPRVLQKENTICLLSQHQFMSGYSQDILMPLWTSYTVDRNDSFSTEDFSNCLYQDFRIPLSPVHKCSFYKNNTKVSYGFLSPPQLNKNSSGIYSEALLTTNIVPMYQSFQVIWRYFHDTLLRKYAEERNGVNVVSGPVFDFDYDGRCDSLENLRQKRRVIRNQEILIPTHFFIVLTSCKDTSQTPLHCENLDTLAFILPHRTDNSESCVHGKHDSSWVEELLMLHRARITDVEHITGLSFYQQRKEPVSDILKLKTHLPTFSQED

[2] = tested on: IP-10 release in differentiated THP-1 cells; assay: IP-10 cytokine release assay in THP-1 cell lines; assay type: cell-based, Human; conditions: for EC50: Homo sapiens, IP-10 release over cGAMP induced release; for Percent release IP-10 (Absolute): differentiated THP-1
Protocol: Percent release of Interferon gamma-induced protein 10 (IP-10) was determined in acute monocytic leukemia (THP-1; ATCC® TIB-202™) cell line. THP-1 cells (0.2×10^6 cells/well) were differentiated using phorbol 12-myristate 13-acetate (PMA, 10 nM (final concentration); Cat #P8139, Sigma) and incubated for 24 h at 37° C., 5% CO2 in an incubator (cell culture conditions) prior to treating with serial dilutions of compounds (3 fold, 6 point dose response starting at 10 μM). After treatment with the compounds cells were further incubated for 2 h under cell culture conditions and then exposed to 2′,3′-cGAMP (c-GAMP, 1 μM (final concentration); Cat #SML 1229, Sigma). Differentiated THP-1 cells were further cultured for 24 h after which the supernatant was harvested, and ELISA was performed as per the manufacturer's protocol (BD optEIA Human IP-10 ELISA Set; Cat #550926 & 550534, BD Biosciences). Plates were read in Biotek plate reader by measuring absorbance at 450 nm.
The release of absolute IP-10 in differentiated THP-1 by compounds in the presence of cGAMP was quantified with reference to standard after subtracting blank (negative) reading from the test readings. The absolute release of IP-10 in the presence of cGAMP (1 μM) is given in the bar-graph (FIG.-1) and in the table-B2a.
The release of IP-10 in differentiated THP-1 by compounds over cGAMP induced release at four different concentrations of cGAMP (1, 5, 10 & 30 μM) was quantified with reference to standard by normalizing the blank (negative) subtracted test readings from average of cGAMP activated cells at that particular concentration. The EC50's was calculated by fitting the curve to the “four-parameter variable slope logistic model” using Prism Graph Pad.

[3] = tested on: IFN-β release in differentiated THP-1 cells; assay: IFN-β cytokine release assay in THP-1; assay type: cell-based; conditions: Homo sapiens, read-out: EC50 (μM) @ 1 μM of cGAMP; IFN-β release over cGAMP induced release, THP-1, 1 μM cGAMP
Protocol: Percent release of Interferon Beta (IFN-03) was determined in acute monocytic leukemia (THP-1; ATCC® TIB-202™) cell line. THP-1 cells (0.3×10^6 cells/well) were differentiated using phorbol 12-myristate 13-acetate (PMA, 50 ng/mL; Cat #P8139, Sigma) and incubated for 24 h at 37° C., 5% CO2 in an incubator (cell culture conditions) prior to treating with serial dilutions of compounds (3 fold, 5 point dose response starting at […]). After treatment with the compounds cells were further incubated for 2 h under cell culture conditions and then exposed to 2′,3′-cGAMP (c-GAMP, 1 μM; Cat #SML 1229, Sigma). Differentiated THP-1 cells were further cultured for 6 h after which the supernatant was harvested, and ELISA was performed as per the manufacturer's protocol (Human IFN-beta Quantikine ELISA Kit; Cat #DIFNB0, R&D systems). Plates were read in Biotek plate reader by measuring absorbance at 450 nm.

[4] = tested on: IFN-β release in mouse splenocytes; assay: IFN-β in mouse splenocyte assay; assay type: cell-based, Balb/c mice; conditions: activated Balb/c splenocytes, cGAMP 1 μM, 24 hr
Protocol: Percent release of Interferon Beta (IFN-03) is determined in mouse splenocytes isolated from Balb/c mice. Mouse splenocytes ([…] cells/well) were activated with Anti-mouse CD3e (3 μg/mil, coated overnight at 4° C.; Cat #14-0032-82, eBioscience) and then incubated with Anti-mouse CD28 (3 μg/ml soluble; Cat #16-0289-81, eBiosciences) for 24 h at 37° C., 5% CO2 in an incubator (cell culture conditions) prior to treating them with serial dilutions of compounds (3 fold, 6 point dose response starting at 30 μM). After treatment with the compounds cells are further incubated for 2 h under cell culture conditions and then treated with 2′,3′-cGAMP (c-GAMP, 1 μM; Cat #SML 1229, Sigma). Splenocytes were further incubated under cell culture conditions for 24 hr after which the supernatant was harvested, and ELISA was performed as per the manufacturer's protocol (mIFN-β kit; Cat #MIFNB0 & DY008, R&D Systems). Plates were read in Biotek plate reader by measuring absorbance at 450 nm.

[5] = tested on: IP-10 release in mouse splenocytes; assay: IP-10 in mouse splenocyte assay; assay type: cell-based, Balb/c mice; conditions: activated Balb/c splenocytes, cGAMP 1 μM, 48 hr
Protocol: Percent release of Interferon gamma-induced protein 10 (IP-10) was determined in mouse splenocytes isolated from Balb/c mice. Mouse splenocytes (2.5*10^5 cells/well) were activated with Anti-mouse CD3e (3 μg/ml, coated overnight at 4° C.; Cat #14-0032-82, eBioscience) and then incubated with Anti-mouse CD28 (3 μg/ml soluble; Cat #16-0289-81, eBiosciences) for 24 h at 37° C., 5% CO2 in an incubator (cell culture conditions) prior to treating them with serial dilutions of compounds (3 fold, 6 point dose response starting at 30 μM). After treatment with the compounds cells were further incubated for 2 h under cell culture conditions and then treated with 2′,3′-cGAMP (c-GAMP, 1 μM; Cat #SML 1229, Sigma). Splenocytes were further incubated under cell culture conditions for 48 hr after which the supernatant was harvested, and ELISA was performed as per the manufacturer's protocol (mIP-10 kit; Cat #DY466-05 & DY008, R&D Systems). Plates were read in Biotek plate reader by measuring absorbance at 450 nm.

IC50 [1]: 0.008 µM | EC50 ([2]; read-out: EC50 (μM)@ 1 μM of cGAMP, THP-1, 1 μM cGAMP): 0.308 µM | EC50 ([2]; read-out: EC50 (μM)@ 10 μM of cGAMP, THP-1, 10 μM cGAMP): 0.471 µM | EC50 ([2]; read-out: EC50 (μM)@ 30 μM of cGAMP, THP-1, 30 μM cGAMP): 0.624 µM | EC50 ([2]; THP-1, 5 μM cGAMP, read-out: EC50 (μM)@ 5 μM of cGAMP): < 0.12 µM | EC50 [3]: < 3.35 µM | IC50 [4]: 3090 nM | IC50 [5]: 1720 nM
Structure (SMILES): COc1cc2ncnc(N3CC(CCNS(N)(=O)=O)C3)c2cc1OC [Compound 1.1, (2-(1-(6,7-dimethoxyquinazolin-4-yl)azetidin-3-yl)ethyl)aminisulfonamide]
Percent release IP-10 (Absolute) ([2]; cGAMP (1 μM) + compound 0.37 μM): 8.9% | Percent release IP-10 (Absolute) ([2]; cGAMP (1 μM) + compound 1.11 μM): 11.4% | Percent release IP-10 (Absolute) ([2]; cGAMP (1 μM) + compound 3.33 μM): 13.1% | Percent release IP-10 (Absolute) ([2]; cGAMP (1 μM) + compound 10 μM): 18.3% | Percent release IP-10 (Absolute) ([2]; cGAMP (1 μM) + compound […]): 7.0%
